Measured values taken from ChEMBL document CHEMBL1201862, “PubChem BioAssay data set” (2004).
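A five-concentration, 48-hour dose response in 96-well plates underlies each endpoint, interpolated linearly between surrounding concentrations. GI50: concentration for 50% inhibition of growth.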 The source made the active and inactive calls. Cut-off read from the data, not from the text of the source: active = GI50 up to about 1.1 µM and inactive = higher.

Legend:
Experiment in all cases: inhibition of tumour cell growth, NCI panel, 48 h
HOP-18 = system: HOP-18
LXFL 529 = system: LXFL 529
NCI-H460 = system: NCI-H460
MOLT-4 = system: MOLT-4
SK-MEL-28 = system: SK-MEL-28
OVCAR-5 = system: OVCAR-5
DMS-114 = system: DMS-114
HL-60 = system: HL-60
DMS-273 = system: DMS-273
TK-10 = system: TK-10
M19-MEL = system: M19-MEL
COLO 205 = system: COLO 205
XF498 = system: XF498
RXF 393 = system: RXF 393
SN12C = system: SN12C
HCT-15 = system: HCT-15
HCC 2998 = system: HCC 2998
LOX IMVI = system: LOX IMVI
SNB-78 = system: SNB-78
OVCAR-4 = system: OVCAR-4
OVCAR-3 = system: OVCAR-3
UO-31 = system: UO-31
UACC-62 = system: UACC-62
HCT-116 = system: HCT-116
NCI-H23 = system: NCI-H23
SNB-19 = system: SNB-19
A549 = system: A549
M14 = system: M14
NCI-H522 = system: NCI-H522
DLD-1 = system: DLD-1
SK-MEL-2 = system: SK-MEL-2
ACHN = system: ACHN
IGROV-1 = system: IGROV-1
786-0 = system: 786-0
K562 = system: K562
HT-29 = system: HT-29
U-251 = system: U-251
Malme-3M = system: Malme-3M
UACC-257 = system: UACC-257
KM12 = system: KM12
SW-620 = system: SW-620
SF-539 = system: SF-539
CCRF-CEM = system: CCRF-CEM
RPMI-8226 = system: RPMI-8226
NCI-H226 = system: NCI-H226
CAKI-1 = system: CAKI-1
SK-MEL-5 = system: SK-MEL-5
SF-268 = system: SF-268
KM-20L2 = system: KM-20L2
EKVX = system: EKVX
HOP-62 = system: HOP-62
SK-OV-3 = system: SK-OV-3
OVCAR-8 = system: OVCAR-8
SF-295 = system: SF-295
SNB-75 = system: SNB-75
SR = system: SR
A498 = system: A498
HOP-92 = system: HOP-92

SMILES: COC(=O)/C(C#N)=C1\CCC(OC)N1 (stereo not drawn)
- GI50 (HOP-18): > 100 µM (inactive)
- GI50 (LXFL 529): > 100 µM (inactive)
- GI50 (NCI-H460): > 100 µM (inactive)
- GI50 (MOLT-4): > 100 µM (inactive)
- GI50 (SK-MEL-28): > 100 µM (inactive)
- GI50 (OVCAR-5): > 100 µM (inactive)
- GI50 (DMS-114): > 100 µM (inactive)
- GI50 (HL-60): > 100 µM (inactive)
- GI50 (DMS-273): > 100 µM (inactive)
- GI50 (TK-10): > 100 µM (inactive)
- GI50 (M19-MEL): > 100 µM (inactive)
- GI50 (COLO 205): > 100 µM (inactive)
- GI50 (XF498): > 100 µM (inactive)
- GI50 (RXF 393): 47.2 µM (inactive)
- GI50 (SN12C): > 100 µM (inactive)
- GI50 (HCT-15): > 100 µM
- GI50 (HCC 2998): > 100 µM (inactive)
- GI50 (LOX IMVI): > 100 µM (inactive)
- GI50 (SNB-78): > 100 µM (inactive)
- GI50 (OVCAR-4): > 100 µM (inactive)
- GI50 (OVCAR-3): > 100 µM (inactive)
- GI50 (UO-31): > 100 µM (inactive)
- GI50 (UACC-62): > 100 µM (inactive)
- GI50 (HCT-116): > 100 µM (inactive)
- GI50 (NCI-H23): > 100 µM (inactive)
- GI50 (SNB-19): > 100 µM (inactive)
- GI50 (A549): > 100 µM (inactive)
- GI50 (M14): > 100 µM (inactive)
- GI50 (NCI-H522): > 100 µM (inactive)
- GI50 (DLD-1): > 100 µM (inactive)
- GI50 (SK-MEL-2): > 100 µM (inactive)
- GI50 (ACHN): > 100 µM (inactive)
- GI50 (IGROV-1): > 100 µM (inactive)
- GI50 (786-0): > 100 µM (inactive)
- GI50 (K562): > 100 µM (inactive)
- GI50 (HT-29): > 100 µM (inactive)
- GI50 (U-251): > 100 µM (inactive)
- GI50 (Malme-3M): > 100 µM (inactive)
- GI50 (UACC-257): > 100 µM (inactive)
- GI50 (KM12): > 100 µM (inactive)
- GI50 (SW-620): > 100 µM (inactive)
- GI50 (SF-539): > 100 µM (inactive)
- GI50 (CCRF-CEM): > 100 µM (inactive)
- GI50 (RPMI-8226): > 100 µM (inactive)
- GI50 (NCI-H226): > 100 µM (inactive)
- GI50 (CAKI-1): > 100 µM (inactive)
- GI50 (SK-MEL-5): > 100 µM (inactive)
- GI50 (SF-268): > 100 µM (inactive)
- GI50 (KM-20L2): > 100 µM (inactive)
- GI50 (EKVX): > 100 µM (inactive)
- GI50 (HOP-62): > 100 µM (inactive)
- GI50 (SK-OV-3): > 100 µM (inactive)
- GI50 (OVCAR-8): > 100 µM (inactive)
- GI50 (SF-295): > 100 µM (inactive)
- GI50 (SNB-75): > 100 µM (inactive)

SMILES: CCOC(=O)C1=C(OC(OCC)C([Se]c2ccccc2)C(C)C)CCC1 (stereo not drawn)
- GI50 (HOP-18): 16.2 µM (inactive)
- GI50 (LXFL 529): 12.2 µM (inactive)
- GI50 (NCI-H460): 16.9 µM (inactive)
- GI50 (MOLT-4): 14.7 µM (inactive)
- GI50 (SK-MEL-28): 16.4 µM (inactive)
- GI50 (OVCAR-5): 22.3 µM (inactive)
- GI50 (HL-60): 3.24 µM (inactive)
- GI50 (DMS-273): 5.52 µM (inactive)
- GI50 (TK-10): 47 µM (inactive)
- GI50 (SR): 3.2 µM (inactive)
- GI50 (M19-MEL): 15.3 µM (inactive)
- GI50 (COLO 205): 14.7 µM (inactive)
- GI50 (XF498): 11.6 µM (inactive)
- GI50 (RXF 393): 9.46 µM (inactive)
- GI50 (SN12C): 10.4 µM (inactive)
- GI50 (HCT-15): 15.2 µM
- GI50 (HCC 2998): 36.8 µM (inactive)
- GI50 (LOX IMVI): 2.31 µM (inactive)
- GI50 (SNB-78): 12.8 µM (inactive)
- GI50 (OVCAR-4): 16.1 µM (inactive)
- GI50 (OVCAR-3): 15.1 µM (inactive)
- GI50 (UO-31): 24.4 µM (inactive)
- GI50 (UACC-62): 14.2 µM (inactive)
- GI50 (HCT-116): 12.5 µM (inactive)
- GI50 (NCI-H23): 8.28 µM (inactive)
- GI50 (A498): 26.5 µM (inactive)
- GI50 (SNB-19): 27.2 µM (inactive)
- GI50 (A549): 28.8 µM (inactive)
- GI50 (M14): 15.8 µM (inactive)
- GI50 (NCI-H522): 7.1 µM (inactive)
- GI50 (DLD-1): 14.7 µM (inactive)
- GI50 (SK-MEL-2): 15.1 µM (inactive)
- GI50 (ACHN): 23.4 µM (inactive)
- GI50 (IGROV-1): 18.3 µM (inactive)
- GI50 (786-0): 6.82 µM (inactive)
- GI50 (K562): 37 µM (inactive)
- GI50 (HT-29): 19.1 µM (inactive)
- GI50 (U-251): 4.29 µM (inactive)
- GI50 (Malme-3M): 26.4 µM (inactive)
- GI50 (UACC-257): 23.2 µM (inactive)
- GI50 (KM12): 41.1 µM (inactive)
- GI50 (SF-539): 12.3 µM (inactive)
- GI50 (CCRF-CEM): 3.44 µM (inactive)
- GI50 (RPMI-8226): 10.1 µM (inactive)
- GI50 (NCI-H226): 13.7 µM (inactive)
- GI50 (CAKI-1): 43.5 µM (inactive)
- GI50 (SK-MEL-5): 13 µM (inactive)
- GI50 (SF-268): 4.73 µM (inactive)
- GI50 (KM-20L2): 28.8 µM (inactive)
- GI50 (EKVX): 18.8 µM (inactive)
- GI50 (HOP-62): 68.7 µM (inactive)
- GI50 (SK-OV-3): 81.7 µM (inactive)
- GI50 (OVCAR-8): 14.1 µM (inactive)
- GI50 (SF-295): 13.4 µM (inactive)
- GI50 (HOP-92): 27.5 µM (inactive)
- GI50 (SNB-75): 23 µM (inactive)

SMILES: Clc1ccc(C2SCc3nc4ccccc4n32)cc1Cl (stereo not drawn)
- GI50 (HOP-18): < 0.01 µM (active)
- GI50 (LXFL 529): 11.8 µM (inactive)
- GI50 (NCI-H460): 13.5 µM (inactive)
- GI50 (MOLT-4): 17.1 µM (inactive)
- GI50 (SK-MEL-28): 12.5 µM (inactive)
- GI50 (OVCAR-5): 10.5 µM (inactive)
- GI50 (DMS-114): 14.8 µM (inactive)
- GI50 (HL-60): 5.9 µM (inactive)
- GI50 (TK-10): 13 µM (inactive)
- GI50 (SR): 13.9 µM (inactive)
- GI50 (M19-MEL): > 10 µM (inactive)
- GI50 (COLO 205): 20.3 µM (inactive)
- GI50 (XF498): 12.1 µM (inactive)
- GI50 (RXF 393): 4.2 µM (inactive)
- GI50 (SN12C): 12.6 µM (inactive)
- GI50 (HCT-15): 13.3 µM
- GI50 (LOX IMVI): 13.1 µM (inactive)
- GI50 (SNB-78): 12.3 µM (inactive)
- GI50 (OVCAR-4): 13.1 µM (inactive)
- GI50 (OVCAR-3): 10.5 µM (inactive)
- GI50 (UACC-62): 13.2 µM (inactive)
- GI50 (HCT-116): 13.2 µM (inactive)
- GI50 (NCI-H23): 12.6 µM (inactive)
- GI50 (SNB-19): 10.6 µM (inactive)
- GI50 (A549): 13.4 µM (inactive)
- GI50 (M14): 13.2 µM (inactive)
- GI50 (NCI-H522): 11.5 µM (inactive)
- GI50 (DLD-1): 12.6 µM (inactive)
- GI50 (SK-MEL-2): 16.2 µM (inactive)
- GI50 (ACHN): 13 µM (inactive)
- GI50 (IGROV-1): 17.3 µM (inactive)
- GI50 (786-0): 13.8 µM (inactive)
- GI50 (K562): 8.34 µM (inactive)
- GI50 (HT-29): 15.1 µM (inactive)
- GI50 (U-251): 16 µM (inactive)
- GI50 (Malme-3M): 18.8 µM (inactive)
- GI50 (KM12): 11.8 µM (inactive)
- GI50 (SW-620): 15.3 µM (inactive)
- GI50 (SF-539): 17.1 µM (inactive)
- GI50 (CCRF-CEM): 23.7 µM (inactive)
- GI50 (RPMI-8226): 11.4 µM (inactive)
- GI50 (NCI-H226): 25.2 µM (inactive)
- GI50 (CAKI-1): 14.1 µM (inactive)
- GI50 (SK-MEL-5): 9.08 µM (inactive)
- GI50 (SF-268): 15.9 µM (inactive)
- GI50 (EKVX): 14.4 µM (inactive)
- GI50 (HOP-62): 14.5 µM (inactive)
- GI50 (SK-OV-3): 21.4 µM (inactive)
- GI50 (OVCAR-8): 13.7 µM (inactive)
- GI50 (SF-295): 11.9 µM (inactive)
- GI50 (HOP-92): 11.2 µM (inactive)
- GI50 (SNB-75): 3.25 µM (inactive)
